Reference: patent US20180251431A1 (VERTEX PHARMACEUTICALS INCORPORATED, priority 2016, published 2018)

Assays:
ABCD1 KO mice = assay: Thermal pain sensitivity (Plantar test, Hargreaves apparatus) in ABCD1 KO mice; type: in vivo, mouse; details: male ABCD1 KO mice
Description: ABCD1 KO mice were used as a functional model of AMN. ABCD1 KO mice display a progressive loss of sensitivity to painful thermal stimulus similar to symptoms observed in AMN patients such as decreased sensitivity to touch. To determine the effect of Compound 87 on thermal sensitivity, Compound 87 was dosed PO QD either prophylactically or therapeutically to determine whether ABCD1 KO mice have different latency thresholds for the Plantar test (Hargreaves apparatus) response compared to wild-type (WT) mice. For the prophylactic study, mice were tested beginning at 10 months of age (before the loss of pain sensitivity) using doses of either 5 or 20 mg/kg. For the therapeutic study, mice were tested beginning at 18 months of age, after there was already a significant loss of pain sensitivity, using doses of either 32 or 64 mg/kg. […] The Plantar test (using a Hargreaves apparatus) was used and measured the latency to respond to a thermal stimulus using the following protocol. An individual mouse was placed into an individual compartment with a glass floor for about 10-15 minutes until they were settled. Each individual mouse was given three trials with an infrared source on each hind paw (alternated hind paws each time, and waited 5 minutes between each trial). […] When a response was observed (paw withdrawal), the key/button was released and the latency to respond was recorded (in seconds).

human microglia = assay: Reduction in C26:0 LPC in human microglia in vitro; type: cell-based; details: half maximal reduction in C26:0 LPC
Description: Lysophosphatidylcholine (LPC) VLCFA were generated from straight chain VLCFA (SC-VLCFA) and were used clinically for newborn screening (Vogel et al., Mol. Genet. Metab. (2015) 114(4):599-603). In vitro efficacy studies were performed by measuring LPC VLCFA level (measured as LPC synthesis) in various cell lines, specifically in 1) human HEK cells, 2) patient derived cells, and 3) human microglia, which are disease relevant CNS cells. Compound 87's dose response relationships and IC50 values were measured in HEK cells, primary patient fibroblasts, immortalized patient lymphocytes, and a human microglial cell line. […]
Immortalized human microglia (Applied Biological Materials (ABM); catalog #T0251; Richmond BC, Canada) were grown and sub-cultured following the subculturing protocols from ABM except DMEM (high glucose, pyruvate; LifeTech Cat. No. 11995) was used instead of Prigrow III medium and standard tissue culture grade flasks and plates were used. […] An equal volume of media was used to neutralize the detachment media and the cells were collected and counted. […]
Upon the completion of the compound treatment, the media (with compound treatment) was aspirated from the well. […] The plate was sealed with a plate tape and put at −80° C. for further VLCFA extraction and VLCFA quantitation on LC-MS, as described below.
VLCFA Extraction and Quantitation on LCMS: […]

O=C(Nc1ccn(-c2ccnc(F)c2)n1)C1(c2ccccc2F)CC1 [Compound 87, 1-(2-fluorophenyl)-N-[1-(2-fluoro-4-pyridyl)pyrazol-3-yl]cyclopropanecarboxamide] was tested, and the “thermal pain sensitivity (response latency, Plantar test), prophylactic treatment” value (ABCD1 KO mice; 5 or 20 mg/kg PO QD, dosing initiated at 10 months of age, 6 month period) was “reduced the loss of thermal pain sensitivity”, the “thermal pain sensitivity (response latency, Plantar test), therapeutic treatment” value (ABCD1 KO mice; 32 or 64 mg/kg PO QD, dosing initiated at 18 months of age) was “reversed the loss of thermal pain sensitivity” and the IC50 (human microglia) was 11 nM.
